From ChEMBL document CHEMBL3885861, “Open TG-GATES”

Species: Rattus norvegicus
Assay: Open TG-GATES - Regimen: Single
Type: toxicity, organism-based, Sprague-Dawley
Set-up: regimen Single, gender Male, age 6 weeks
Details: in vivo, po, 0 mg/kg, route gavage, dose level Control; for APTT / Bas / Eos / Fbg / Hb / Ht / Lym / MCH / MCHC / MCV / Mono / Neu / PT / Plat / RBC / Ret / WBC: tissue Blood; for KIDNEY_L / KIDNEY_R / KIDNEY_TOTAL: tissue Kidney; for LIVER: tissue Liver; for A/G / ALP / ALT / AST / BUN / CRE / Ca / Cl / DBIL / GLC / IP / K / LDH / Na / PL / RALB / TBIL / TC / TG / TP / gamma-GTP: tissue Plasma

CN(C)CCC(c1ccc(Cl)cc1)c1ccccn1 (configuration not stated) [CHLORPHENIRAMINE]
TERMINAL_BW (3 h): 198.4 g
APTT (3 h): 18.8 s
Bas (3 h): 0.2%
Eos (3 h): 0.8%
Fbg (3 h): 288.8 mg/dL
Hb (3 h): 12.6 g/dL
Ht (3 h): 39.4%
Lym (3 h): 77.4%
MCH (3 h): 20.8 pg
MCHC (3 h): 32.1%
MCV (3 h): 64.9 fL
Mono (3 h): 2.8%
Neu (3 h): 18.2%
PT (3 h): 14.7 s
Plat (3 h): 109.9 x10_4/uL
RBC (3 h): 606.2 x10_4/ul
Ret (3 h): 9.4%
WBC (3 h): 120.9 x10_2/uL
KIDNEY_L (3 h): 0.9 g
KIDNEY_R (3 h): 0.9 g
KIDNEY_TOTAL (3 h): 1.7 g
LIVER (3 h): 9.2 g
A/G (3 h): 0.9
ALP (3 h): 1344.2 IU/L
ALT (3 h): 46 IU/L
AST (3 h): 73.6 IU/L
BUN (3 h): 9.2 mg/dL
CRE (3 h): 0.2 mg/dL
Ca (3 h): 10.5 mg/dL
Cl (3 h): 107.2 meq/L
DBIL (3 h): 0.008 mg/dL
GLC (3 h): 179 mg/dL
IP (3 h): 9.7 mg/dL
K (3 h): 4.3 meq/L
LDH (3 h): 215.8 IU/L
Na (3 h): 142.8 meq/L
PL (3 h): 137.2 mg/dL
RALB (3 h): 2.5 g/dL
TBIL (3 h): 0.054 mg/dL
TC (3 h): 79.8 mg/dL
TG (3 h): 46.6 mg/dL
TP (3 h): 5.3 g/dL
gamma-GTP (3 h): 1.4 IU/L
TERMINAL_BW (6 h): 196.5 g
APTT (6 h): 17.5 s
Bas (6 h): 0%
Eos (6 h): 0.6%
Fbg (6 h): 303.6 mg/dL
Hb (6 h): 12.8 g/dL
Ht (6 h): 40.3%
Lym (6 h): 76.8%
MCH (6 h): 20.7 pg
MCHC (6 h): 31.8%
MCV (6 h): 65.1 fL
Mono (6 h): 3.2%
Neu (6 h): 18.8%
PT (6 h): 14.8 s
Plat (6 h): 117.5 x10_4/uL
RBC (6 h): 618.2 x10_4/ul
Ret (6 h): 9.5%
WBC (6 h): 82.5 x10_2/uL
KIDNEY_L (6 h): 0.9 g
KIDNEY_R (6 h): 0.9 g
KIDNEY_TOTAL (6 h): 1.7 g
LIVER (6 h): 8.7 g
A/G (6 h): 0.9
ALP (6 h): 1456.6 IU/L
ALT (6 h): 44.8 IU/L
AST (6 h): 76.2 IU/L
BUN (6 h): 10.2 mg/dL
CRE (6 h): 0.2 mg/dL
Ca (6 h): 10.8 mg/dL
Cl (6 h): 106.6 meq/L
DBIL (6 h): 0.008 mg/dL
GLC (6 h): 190.6 mg/dL
IP (6 h): 10.7 mg/dL
K (6 h): 4.2 meq/L
LDH (6 h): 140.2 IU/L
Na (6 h): 143 meq/L
PL (6 h): 135.2 mg/dL
RALB (6 h): 2.5 g/dL
TBIL (6 h): 0.05 mg/dL
TC (6 h): 81 mg/dL
TG (6 h): 49.2 mg/dL
TP (6 h): 5.4 g/dL
gamma-GTP (6 h): 1.2 IU/L
TERMINAL_BW (9 h): 193.9 g
APTT (9 h): 19.1 s
Bas (9 h): 0%
Eos (9 h): 0.8%
Fbg (9 h): 294.4 mg/dL
Hb (9 h): 12.7 g/dL
Ht (9 h): 39.4%
Lym (9 h): 75.6%
MCH (9 h): 21.6 pg
MCHC (9 h): 32.2%
MCV (9 h): 67.1 fL
Mono (9 h): 2.8%
Neu (9 h): 19.8%
PT (9 h): 15 s
Plat (9 h): 107.8 x10_4/uL
RBC (9 h): 587.6 x10_4/ul
Ret (9 h): 9.5%
WBC (9 h): 66.4 x10_2/uL
KIDNEY_L (9 h): 0.9 g
KIDNEY_R (9 h): 0.9 g
KIDNEY_TOTAL (9 h): 1.7 g
LIVER (9 h): 7.7 g
A/G (9 h): 0.9
ALP (9 h): 1415.8 IU/L
ALT (9 h): 38.6 IU/L
AST (9 h): 73.8 IU/L
BUN (9 h): 8.2 mg/dL
CRE (9 h): 0.1 mg/dL
Ca (9 h): 10.2 mg/dL
Cl (9 h): 106.6 meq/L
DBIL (9 h): 0.008 mg/dL
GLC (9 h): 161.6 mg/dL
IP (9 h): 10.7 mg/dL
K (9 h): 4 meq/L
LDH (9 h): 116.2 IU/L
Na (9 h): 143.8 meq/L
PL (9 h): 131.6 mg/dL
RALB (9 h): 2.5 g/dL
TBIL (9 h): 0.054 mg/dL
TC (9 h): 76.2 mg/dL
TG (9 h): 39.4 mg/dL
TP (9 h): 5.4 g/dL
gamma-GTP (9 h): 1.2 IU/L
TERMINAL_BW (24 h): 212.2 g
APTT (24 h): 19.7 s
Bas (24 h): 0%
Eos (24 h): 1%
Fbg (24 h): 292.6 mg/dL
Hb (24 h): 13.3 g/dL
Ht (24 h): 41.2%
Lym (24 h): 80.6%
MCH (24 h): 21.2 pg
MCHC (24 h): 32.2%
MCV (24 h): 66 fL
Mono (24 h): 3.6%
Neu (24 h): 14.2%
PT (24 h): 14.7 s
Plat (24 h): 116.5 x10_4/uL
RBC (24 h): 624.8 x10_4/ul
Ret (24 h): 8.4%
WBC (24 h): 75.5 x10_2/uL
KIDNEY_L (24 h): 0.9 g
KIDNEY_R (24 h): 0.9 g
KIDNEY_TOTAL (24 h): 1.8 g
LIVER (24 h): 10 g
A/G (24 h): 0.8
ALP (24 h): 1528.4 IU/L
ALT (24 h): 46 IU/L
AST (24 h): 70.2 IU/L
BUN (24 h): 14.6 mg/dL
CRE (24 h): 0.2 mg/dL
Ca (24 h): 11 mg/dL
Cl (24 h): 106.4 meq/L
DBIL (24 h): 0.012 mg/dL
GLC (24 h): 190.6 mg/dL
IP (24 h): 8.8 mg/dL
K (24 h): 4.3 meq/L
LDH (24 h): 94.4 IU/L
Na (24 h): 143 meq/L
PL (24 h): 156.8 mg/dL
RALB (24 h): 2.7 g/dL
TBIL (24 h): 0.04 mg/dL
TC (24 h): 85 mg/dL
TG (24 h): 86 mg/dL
TP (24 h): 5.8 g/dL
gamma-GTP (24 h): 1.4 IU/L
